The values below come from patent EP1247803A2, “Indolinone compounds suitable for modulation of protein kinases” (Sugen, Inc., priority 1996, dated 1998).

One test has as its target T1, FLK-1 receptor (Mus musculus, UniProt P35918).
T1 construct: expressed in transfected cells; host or cells: NIH3T3 C7#3
In words: FLK-1 ELISA (kinase activity of the FLK-1 receptor in FLK-1/NIH3T3 cells, VEGF stimulated). Format: cell-based. In short, it runs like this: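 NIH3T3 C7#3 cells expressing FLK-1 were seeded at 25.000 cells/well, serum-starved overnight in 0.1% FBS, then treated with compound for two hours at 37°C (final DMSO 0.5%) before VEGF stimulation. Receptor was captured on anti-rabbit IgG-coated ELISA plates bearing affinity-purified anti-FLK-1 antiserum.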

The test system of a further test is MET. Nature of the test: MET biochemical kinase assay. Also noted: species or system human; concentration or dose not given beside the values. In short, it runs like this:
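Human MET was captured from cell lysates onto ELISA plates via goat anti-rabbit Fc and rabbit polyclonal antibody to the MET cytoplasmic domain. After washing, test compounds and kinase buffer with ATP and divalent metal ions were added. Phosphotyrosine was detected with HRP-conjugated anti-phosphotyrosine antibody and TMB colorimetric read-out.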

T1 sequence (P35918 20-1345): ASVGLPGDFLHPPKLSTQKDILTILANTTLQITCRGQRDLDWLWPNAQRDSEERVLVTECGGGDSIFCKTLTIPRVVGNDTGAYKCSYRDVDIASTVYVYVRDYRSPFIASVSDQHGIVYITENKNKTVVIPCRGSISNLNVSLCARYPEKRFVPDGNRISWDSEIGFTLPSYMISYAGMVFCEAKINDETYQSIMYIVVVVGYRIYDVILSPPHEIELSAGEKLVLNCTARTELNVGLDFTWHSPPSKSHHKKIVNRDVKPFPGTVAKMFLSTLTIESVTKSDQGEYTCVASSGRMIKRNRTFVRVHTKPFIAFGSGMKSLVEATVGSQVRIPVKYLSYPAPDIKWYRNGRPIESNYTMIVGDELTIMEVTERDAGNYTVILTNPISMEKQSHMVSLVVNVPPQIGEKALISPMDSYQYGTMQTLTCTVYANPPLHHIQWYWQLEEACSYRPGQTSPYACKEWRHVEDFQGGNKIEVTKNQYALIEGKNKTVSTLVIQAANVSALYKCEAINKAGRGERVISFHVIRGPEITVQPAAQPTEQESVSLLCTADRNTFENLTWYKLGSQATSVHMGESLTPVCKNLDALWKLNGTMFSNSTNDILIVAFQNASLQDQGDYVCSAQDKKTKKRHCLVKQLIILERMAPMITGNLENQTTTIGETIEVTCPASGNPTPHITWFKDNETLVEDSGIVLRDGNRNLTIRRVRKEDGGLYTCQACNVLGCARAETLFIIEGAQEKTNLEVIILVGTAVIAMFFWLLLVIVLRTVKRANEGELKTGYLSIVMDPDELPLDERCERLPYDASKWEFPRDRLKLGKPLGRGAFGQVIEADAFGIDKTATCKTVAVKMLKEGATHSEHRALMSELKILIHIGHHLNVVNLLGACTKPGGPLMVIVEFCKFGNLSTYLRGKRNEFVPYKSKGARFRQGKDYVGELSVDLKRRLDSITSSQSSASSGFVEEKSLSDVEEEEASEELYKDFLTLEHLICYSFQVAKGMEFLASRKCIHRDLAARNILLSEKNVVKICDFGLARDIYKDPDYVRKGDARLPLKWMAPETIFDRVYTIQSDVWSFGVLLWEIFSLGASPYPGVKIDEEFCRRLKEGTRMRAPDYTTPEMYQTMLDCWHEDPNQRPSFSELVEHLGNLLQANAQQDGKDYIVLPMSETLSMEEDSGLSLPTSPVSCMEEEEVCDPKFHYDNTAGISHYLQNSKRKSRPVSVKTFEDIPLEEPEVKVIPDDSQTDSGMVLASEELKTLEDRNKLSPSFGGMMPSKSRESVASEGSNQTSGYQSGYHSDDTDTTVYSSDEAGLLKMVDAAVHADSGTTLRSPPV

Consider `CC(C)(C)c1cc(C=C2C(=O)Nc3c(Br)cc(Br)cc32)cc(I)c1OCc1ccccc1` [10733/A02], for which the “Fik Kinase %Inhibition” value at FLK-1 receptor is -5.2%. Also, the “Met Kinase % Inhibition” value with MET is reported as 74.6%.

For the compound `CNS(=O)(=O)c1ccc2c(c1)C(=Cc1cc(C(C)(C)C)c(OCc3ccccc3)c(C(C)(C)C)c1)C(=O)N2` [10733/D05], the “Fik Kinase %Inhibition” value on FLK-1 receptor stood at 16.5%. For the same compound, the “Met Kinase % Inhibition” value with MET is given as 25.1%.

Regarding `Cc1cc(C=C2C(=O)Nc3c(Br)cc(Br)cc32)cc(C)c1OCc1ccccc1` [10733/A07], at FLK-1 receptor, the “Fik Kinase %Inhibition” value is -27.4%. In addition, the “Met Kinase % Inhibition” value in the test with MET was found to be 27.2%.

As for `CC(C)(C)c1cc(C=C2C(=O)Nc3ccc(CCCl)cc32)ccc1OCc1ccccc1` [10732/G06], the “Fik Kinase %Inhibition” value on FLK-1 receptor amounted to 26.5%. In addition, the “Met Kinase % Inhibition” value with MET amounted to 16.2%.

As for `COc1cc(Br)cc(C=C2C(=O)Nc3ccc(Br)c(C)c32)c1O` [10733/C08], the “Fik Kinase %Inhibition” value at FLK-1 receptor is reported as -28.5%. Besides, in the test with MET, the “Met Kinase % Inhibition” value stood at 85.7%.

Take `COc1cc(Br)cc(C=C2C(=O)Nc3ccc(I)cc32)c1O` [10733/B08]: the “Fik Kinase %Inhibition” value at FLK-1 receptor is -16.0%. Also, the “Met Kinase % Inhibition” value in the test with MET is on record as 65.5%.

On to `CNS(=O)(=O)c1ccc2c(c1)C(=Cc1ccc(O)c(C)c1O)C(=O)N2` [10718/D09], for which, on FLK-1 receptor, the “Fik Kinase %Inhibition” value is -9.1%. The “Met Kinase % Inhibition” value in the test with MET is reported as 9.9%.

Consider `CC(C)c1cc(C=C2C(=O)Nc3ccc(S(=O)(=O)N4CCOCC4)cc32)cc(C(C)C)c1Oc1ccccc1` [10732/F04], for which the “Fik Kinase %Inhibition” value at FLK-1 receptor was determined as 16.2%. The “Met Kinase % Inhibition” value in the test with MET was 57.2%.
